Our source for the IC50 values is ChEMBL document CHEMBL1140398, “New dual inhibitors of EGFR and HER2 protein tyrosine kinases” (Bioorg Med Chem Lett, 2005).

In assay [1] the target is Receptor tyrosine-protein kinase erbB-2 (Homo sapiens, UniProt P04626). The assay can be described thus: In vitro inhibitory concentration against HER2 cytoplasmic sequence expressed in Sf9 cells.
Assay [2] has as its target Epidermal growth factor receptor (Homo sapiens, UniProt P00533). Briefly: In vitro inhibitory concentration against EGFR cytoplasmic sequence expressed in Sf9 cells.
Assay [3] addresses Mitogen-activated protein kinase 14 (Homo sapiens, UniProt Q16539). The assay can be described thus: Inhibitory concentration against p38 cytoplasmic sequence; Reported as mean (variability <15%).
For a further assay, the target named is Focal adhesion kinase 1 (Homo sapiens, UniProt Q05397). Briefly: Inhibitory concentration against FAK cytoplasmic sequence; Reported as mean (variability <15%).
Assay [4] concerns the target Insulin-like growth factor 1 receptor (Homo sapiens, UniProt P08069). The assay can be described thus: Inhibitory concentration against IGF-1R cytoplasmic sequence; Reported as mean (variability <15%).
The target of assay [5] is MAP kinase-activated protein kinase 2 (Homo sapiens, UniProt P49137). The assay can be described thus: Inhibitory concentration against MAPKAP kinase 2 cytoplasmic sequence; Reported as mean (variability <15%).
Assay [6] has as its target Hepatocyte growth factor receptor (Homo sapiens, UniProt P08581). The assay can be described thus: Inhibitory concentration against Met cytoplasmic sequence; Reported as mean (variability <15%).

Each structure is given as a SMILES string. Where only a bound is given, the exact number is not on record here.

Sequence of Receptor tyrosine-protein kinase erbB-2 (P04626 whole entry): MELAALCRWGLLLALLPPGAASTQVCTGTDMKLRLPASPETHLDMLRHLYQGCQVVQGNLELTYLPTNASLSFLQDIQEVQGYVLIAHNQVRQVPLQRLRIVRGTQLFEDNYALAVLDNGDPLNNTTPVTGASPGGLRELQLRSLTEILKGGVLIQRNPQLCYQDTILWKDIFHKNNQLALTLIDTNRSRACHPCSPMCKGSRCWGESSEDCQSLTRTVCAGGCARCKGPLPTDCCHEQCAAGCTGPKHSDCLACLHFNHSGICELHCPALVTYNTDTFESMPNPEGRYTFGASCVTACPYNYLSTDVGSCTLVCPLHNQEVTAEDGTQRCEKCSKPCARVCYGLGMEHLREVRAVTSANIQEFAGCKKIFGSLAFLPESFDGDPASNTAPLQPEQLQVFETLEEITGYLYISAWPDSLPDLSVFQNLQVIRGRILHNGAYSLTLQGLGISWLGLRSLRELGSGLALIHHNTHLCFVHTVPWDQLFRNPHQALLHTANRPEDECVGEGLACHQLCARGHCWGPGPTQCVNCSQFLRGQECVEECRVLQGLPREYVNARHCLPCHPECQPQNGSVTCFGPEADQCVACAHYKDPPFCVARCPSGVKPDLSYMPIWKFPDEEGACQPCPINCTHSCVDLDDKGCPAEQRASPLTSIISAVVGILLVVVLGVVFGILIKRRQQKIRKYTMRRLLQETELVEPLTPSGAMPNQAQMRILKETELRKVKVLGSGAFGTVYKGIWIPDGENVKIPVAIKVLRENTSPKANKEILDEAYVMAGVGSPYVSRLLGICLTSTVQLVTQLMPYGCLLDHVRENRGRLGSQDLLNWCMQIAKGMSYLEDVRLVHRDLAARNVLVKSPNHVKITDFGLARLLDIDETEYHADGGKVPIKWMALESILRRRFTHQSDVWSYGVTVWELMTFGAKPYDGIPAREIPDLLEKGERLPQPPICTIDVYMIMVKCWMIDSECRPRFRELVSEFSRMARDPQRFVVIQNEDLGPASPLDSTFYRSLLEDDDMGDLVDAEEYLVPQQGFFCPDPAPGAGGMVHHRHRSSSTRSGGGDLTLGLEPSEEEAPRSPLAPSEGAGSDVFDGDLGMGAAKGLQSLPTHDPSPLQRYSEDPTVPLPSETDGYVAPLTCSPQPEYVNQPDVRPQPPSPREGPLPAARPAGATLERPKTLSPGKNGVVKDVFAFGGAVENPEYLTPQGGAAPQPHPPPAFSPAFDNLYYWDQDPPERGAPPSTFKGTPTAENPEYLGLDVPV
Sequence of Epidermal growth factor receptor (P00533 whole entry): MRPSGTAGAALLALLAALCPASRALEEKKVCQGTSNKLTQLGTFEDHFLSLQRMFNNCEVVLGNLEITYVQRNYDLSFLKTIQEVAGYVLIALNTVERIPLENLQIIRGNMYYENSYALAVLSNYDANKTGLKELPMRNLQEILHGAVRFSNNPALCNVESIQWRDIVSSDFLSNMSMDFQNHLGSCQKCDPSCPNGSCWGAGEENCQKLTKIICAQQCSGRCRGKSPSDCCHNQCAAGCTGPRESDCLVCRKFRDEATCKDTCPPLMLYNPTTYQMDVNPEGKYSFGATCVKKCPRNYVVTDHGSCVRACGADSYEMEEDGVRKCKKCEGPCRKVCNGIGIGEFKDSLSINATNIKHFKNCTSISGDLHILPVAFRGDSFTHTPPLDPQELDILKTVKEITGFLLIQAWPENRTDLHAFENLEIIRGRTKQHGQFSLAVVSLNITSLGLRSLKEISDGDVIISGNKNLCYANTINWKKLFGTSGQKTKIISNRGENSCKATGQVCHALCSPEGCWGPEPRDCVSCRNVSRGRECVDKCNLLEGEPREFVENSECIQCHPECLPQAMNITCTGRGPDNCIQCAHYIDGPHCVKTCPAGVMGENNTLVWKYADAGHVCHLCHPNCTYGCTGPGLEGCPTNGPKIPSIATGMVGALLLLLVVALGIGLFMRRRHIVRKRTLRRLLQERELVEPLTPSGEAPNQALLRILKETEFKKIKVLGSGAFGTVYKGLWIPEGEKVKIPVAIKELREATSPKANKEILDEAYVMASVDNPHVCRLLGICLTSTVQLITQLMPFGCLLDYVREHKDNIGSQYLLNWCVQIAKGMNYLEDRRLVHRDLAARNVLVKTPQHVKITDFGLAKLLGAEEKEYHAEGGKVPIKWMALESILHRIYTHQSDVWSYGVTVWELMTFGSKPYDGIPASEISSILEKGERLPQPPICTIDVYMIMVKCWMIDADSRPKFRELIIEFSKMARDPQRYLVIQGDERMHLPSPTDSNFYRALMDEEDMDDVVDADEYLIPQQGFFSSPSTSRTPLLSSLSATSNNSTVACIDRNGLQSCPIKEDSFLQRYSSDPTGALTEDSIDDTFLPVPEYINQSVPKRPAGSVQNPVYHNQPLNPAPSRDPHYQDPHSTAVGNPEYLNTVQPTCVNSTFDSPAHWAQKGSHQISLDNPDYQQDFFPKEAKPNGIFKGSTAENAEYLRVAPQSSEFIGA
Sequence of Focal adhesion kinase 1 (Q05397 whole entry): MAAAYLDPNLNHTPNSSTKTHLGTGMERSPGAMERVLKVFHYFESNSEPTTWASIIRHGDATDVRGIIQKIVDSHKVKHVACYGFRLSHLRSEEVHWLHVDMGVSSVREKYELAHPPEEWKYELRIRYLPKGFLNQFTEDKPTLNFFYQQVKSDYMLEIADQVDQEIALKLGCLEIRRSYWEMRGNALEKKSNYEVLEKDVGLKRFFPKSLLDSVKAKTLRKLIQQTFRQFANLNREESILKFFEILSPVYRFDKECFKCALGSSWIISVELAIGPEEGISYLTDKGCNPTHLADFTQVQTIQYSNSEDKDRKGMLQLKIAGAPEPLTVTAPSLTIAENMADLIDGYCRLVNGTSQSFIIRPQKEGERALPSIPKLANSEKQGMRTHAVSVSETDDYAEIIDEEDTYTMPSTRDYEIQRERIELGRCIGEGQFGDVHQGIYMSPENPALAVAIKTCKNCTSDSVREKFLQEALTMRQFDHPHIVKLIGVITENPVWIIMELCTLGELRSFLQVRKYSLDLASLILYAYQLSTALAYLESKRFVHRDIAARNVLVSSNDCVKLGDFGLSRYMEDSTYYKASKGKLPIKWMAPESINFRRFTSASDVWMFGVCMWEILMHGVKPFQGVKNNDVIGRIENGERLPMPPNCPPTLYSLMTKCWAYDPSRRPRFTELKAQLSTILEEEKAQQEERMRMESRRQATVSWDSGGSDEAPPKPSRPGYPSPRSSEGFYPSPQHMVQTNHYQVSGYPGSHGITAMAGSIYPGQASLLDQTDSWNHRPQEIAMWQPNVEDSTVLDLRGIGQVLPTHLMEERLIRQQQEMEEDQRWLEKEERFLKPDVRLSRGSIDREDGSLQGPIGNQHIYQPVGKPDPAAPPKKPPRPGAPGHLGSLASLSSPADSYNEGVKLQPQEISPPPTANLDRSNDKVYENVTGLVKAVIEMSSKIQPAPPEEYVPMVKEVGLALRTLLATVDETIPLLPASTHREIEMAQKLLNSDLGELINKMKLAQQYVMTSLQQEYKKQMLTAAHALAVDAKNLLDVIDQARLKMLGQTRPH
Sequence of Insulin-like growth factor 1 receptor (P08069 31-736 limits assumed): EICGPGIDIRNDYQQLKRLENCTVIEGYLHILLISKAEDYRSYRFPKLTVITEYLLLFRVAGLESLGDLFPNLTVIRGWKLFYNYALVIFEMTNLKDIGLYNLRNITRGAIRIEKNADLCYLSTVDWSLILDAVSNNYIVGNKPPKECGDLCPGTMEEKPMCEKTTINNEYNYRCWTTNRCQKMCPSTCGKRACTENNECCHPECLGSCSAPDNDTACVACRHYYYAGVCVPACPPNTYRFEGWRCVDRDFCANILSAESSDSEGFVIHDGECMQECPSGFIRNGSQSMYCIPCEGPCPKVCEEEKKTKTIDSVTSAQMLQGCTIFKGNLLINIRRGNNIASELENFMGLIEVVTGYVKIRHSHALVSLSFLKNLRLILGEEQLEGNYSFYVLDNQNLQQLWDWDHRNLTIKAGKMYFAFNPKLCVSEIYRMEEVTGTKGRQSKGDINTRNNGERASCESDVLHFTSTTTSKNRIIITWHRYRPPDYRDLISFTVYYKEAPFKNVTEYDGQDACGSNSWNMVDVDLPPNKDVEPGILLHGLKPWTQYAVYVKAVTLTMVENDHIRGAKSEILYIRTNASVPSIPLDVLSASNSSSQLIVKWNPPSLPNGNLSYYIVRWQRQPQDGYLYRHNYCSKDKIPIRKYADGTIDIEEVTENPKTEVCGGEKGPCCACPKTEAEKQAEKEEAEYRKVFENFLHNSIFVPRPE
Sequence of Insulin-like growth factor 1 receptor (P08069 741-1367 limits assumed): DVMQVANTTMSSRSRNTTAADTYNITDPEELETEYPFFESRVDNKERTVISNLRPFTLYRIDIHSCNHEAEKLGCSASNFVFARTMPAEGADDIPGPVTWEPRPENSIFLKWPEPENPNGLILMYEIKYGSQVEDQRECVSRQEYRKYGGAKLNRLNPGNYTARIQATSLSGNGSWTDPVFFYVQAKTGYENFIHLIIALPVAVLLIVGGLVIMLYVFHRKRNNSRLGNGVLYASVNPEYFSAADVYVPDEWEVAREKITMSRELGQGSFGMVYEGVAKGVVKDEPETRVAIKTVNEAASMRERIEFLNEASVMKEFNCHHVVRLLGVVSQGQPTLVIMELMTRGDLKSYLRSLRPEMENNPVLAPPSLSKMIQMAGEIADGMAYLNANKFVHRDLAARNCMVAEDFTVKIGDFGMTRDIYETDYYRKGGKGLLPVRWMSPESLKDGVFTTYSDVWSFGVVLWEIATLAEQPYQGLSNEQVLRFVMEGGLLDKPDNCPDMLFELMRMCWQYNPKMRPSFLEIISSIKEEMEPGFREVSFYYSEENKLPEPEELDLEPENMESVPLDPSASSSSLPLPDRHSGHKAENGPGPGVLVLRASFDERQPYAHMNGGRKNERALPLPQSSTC

Consider `CCc1c(C(=O)OCCCn2ccnc2)cn2ncnc(Nc3ccc4c(cnn4Cc4ccccc4)c3)c12`, for which the IC50 is 240 nM in assay [1] and 170 nM in assay [2].

`CCc1c(C(=O)NCCCn2ccnc2)cn2ncnc(Nc3ccc4c(cnn4Cc4ccccc4)c3)c12`: the half-maximal inhibitory concentration (IC50) in assay [1] amounted to 30 nM; in assay [2], 40 nM.

Regarding `CCc1c(CC(N)=O)cn2ncnc(Nc3ccc4c(cnn4Cc4ccccc4)c3)c12`, the results for the IC50 in assay [1] and in assay [2] were 2400 nM and 1100 nM, respectively.

`CCOC(=O)c1cn2ncnc(Nc3ccc(Oc4ccccc4)cc3)c2c1CC`: the half-inhibitory concentration (IC50) in assay [1] was 820 nM; in assay [2] it was 610 nM.

On to `CCc1c(C(N)=O)cn2ncnc(Nc3ccc4c(cnn4Cc4ccccc4)c3)c12`, for which the results for the 50% inhibitory concentration (IC50) in assay [1] and in assay [2] were 110 nM and 120 nM, respectively.

For `CCOC(=O)c1cn2ncnc(Nc3ccc(F)c(Cl)c3)c2c1CC`, the 50% inhibitory concentration (IC50) in assay [1] stood at 2800 nM; in assay [2], 90 nM.

As to `CCc1c(C(=O)O)cn2ncnc(Nc3ccc4c(cnn4Cc4ccccc4)c3)c12`, the IC50 in assay [1] turned out to be 40 nM; in assay [2], 20 nM.

As to `CCOCc1cn2ncnc(Nc3ccc4c(cnn4Cc4ccccc4)c3)c2c1CC`, the concentration for half-maximal inhibition (IC50) in assay [1] was 1400 nM; in assay [2] it was 950 nM.

Take `CCOC(=O)c1cn2ncnc(Nc3ccc4c(cnn4Cc4ccccc4)c3)c2c1CC`: the 50% inhibitory concentration (IC50) in assay [1] is 180 nM; in assay [2], 120 nM.

For the compound `CCOC(=O)c1cn2ncnc(Nc3ccc4c(cnn4Cc4ccccc4)c3)c2c1Cc1ccccc1`, the IC50 in assay [1] and in assay [2] was greater than 25000 nM each time.

`CCc1c(C(=O)NC)cn2ncnc(Nc3ccc4c(cnn4Cc4ccccc4)c3)c12`: the IC50 in assay [1] worked out at 130 nM; in assay [2], 70 nM.

Turning to `CCOC(=O)c1cn2ncnc(Nc3ccc4c(cnn4Cc4ccccc4)c3)c2c1C(C)C`, the half-inhibitory concentration (IC50) in assay [1] turned out to be 210 nM; in assay [2], 200 nM.

Consider `CCNCc1cn2ncnc(Nc3ccc4c(cnn4Cc4ccccc4)c3)c2c1CC`, for which the 50% inhibitory concentration (IC50) in assay [1] amounted to 9700 nM; in assay [2], 7400 nM.

In the case of `CCOC(=O)c1cn2ncnc(Nc3cccc(Br)c3)c2c1CC`, the values for the IC50 in assay [1] and in assay [2] were 3000 nM and 60 nM, respectively.

`CCOC(=O)c1cn2ncnc(NCc3ccccc3)c2c1CC`: the IC50 in assay [1] turned out to be 7200 nM; in assay [2], 200 nM.

On to `CCOC(=O)c1cn2ncnc(Nc3ccc4[nH]ncc4c3)c2c1CC`, for which, in assay [1], the half-inhibitory concentration (IC50) worked out at 3300 nM.

`CCc1c(C(=O)N(C)C)cn2ncnc(Nc3ccc4c(cnn4Cc4ccccc4)c3)c12`: the IC50 in assay [1] is 500 nM; in assay [2] it was 200 nM.

`CCc1c(NC(=O)OCc2ccccc2)cn2ncnc(Nc3ccc4c(cnn4Cc4ccccc4)c3)c12`: the figures for the IC50 in assay [1] and in assay [2] were 170 nM and 210 nM, respectively.

On to `CCc1c(CC(=O)O)cn2ncnc(Nc3ccc4c(cnn4Cc4ccccc4)c3)c12`, for which the values for the IC50 in assay [1] and in assay [2] were 680 nM and 1600 nM, respectively.

Regarding `CCc1c(CO)cn2ncnc(Nc3ccc4c(cnn4Cc4ccccc4)c3)c12`, the values for the half-inhibitory concentration (IC50) in assay [1] and in assay [2] were 730 nM and 490 nM, respectively.

Turning to `CCc1c(NC(=O)OCCn2ccnc2)cn2ncnc(Nc3ccc4c(cnn4Cc4ccccc4)c3)c12`, the IC50 in assay [1] is 40 nM; in assay [3], greater than 25000 nM; in assay [2], 40 nM; on Focal adhesion kinase 1, greater than 25000 nM; in assay [4], greater than 25000 nM; in assay [5], greater than 25000 nM. The IC50 in assay [6] was greater than 10000 nM.

As for `CCOC(=O)c1cc2c(Nc3ccc4c(cnn4Cc4ccccc4)c3)ncnn2c1`, the IC50 in assay [1] is 390 nM; in assay [2], 120 nM.

With `CCCc1c(C(=O)OCC)cn2ncnc(Nc3ccc4c(cnn4Cc4ccccc4)c3)c12`, the results for the IC50 in assay [1] and in assay [2] were 1200 nM and 950 nM, respectively.
